Patent publication US9220799B2, “Bactericidal agent composition” (SUNSTAR ENGINEERING INC., priority 2012, dated 2015)

Experiments:
[1] = tested on: Pseudomonas aeruginosa NBRC13275; assay: Bactericidal test on carriers with adhered Pseudomonas aeruginosa and dried organic substance (AOAC Official Method 964.02), surviving cell count; Examples 1, 4, 5; assay type: cell-based
Procedure: The test was conducted in accordance with AOAC Official Method 964.02 Testing Disinfectants against Pseudomonas aeruginosa.
The water prepared as described above to contain oxygen-filled ultrafine bubbles or the purified water of the Japanese Pharmacopoeia was used to dilute povidone iodine such that it was conditioned to 100 mg/L.
A cryopreserved bacterial strain (Pseudomonas aeruginosa NBRC13275) was grown in a tryptic soy agar (Difco; hereinafter referred to as TSA medium) at 36±1° C. for 18-24 hours. The grown cells were transplanted into a tryptic soy broth (Difco; hereinafter referred to as TSB medium) where they were cultured at 36±1° C. for 18-24 hours. The liquids of the thus cultured cells were conditioned with a TSB medium to an approximate value of 10^6 CFU/mL and the resulting liquids were used as test bacterial liquids.
A sterile bioassay cup (stainless steel Penicillin Cup 441-01 made by Sogo Rikagagu glass; hereinafter designated as a carrier) was placed in a 100-mL beaker, into which test bacterial liquids were poured in such amounts that the carrier would be completely immersed (ca. 30-40 mL). After allowing the beaker to stand for 10-15 minutes, the carrier was transferred onto a Petri dish with sterile filter paper spread on the bottom and by allowing the Petri dish to stand at 36±1° C. for 40±2 minutes, the bacterial cells and the organic substance derived from the mediums were dried and adhered to the carrier.
The test liquids preliminarily held at 25±2° C. were each dispensed in 10 mL into centrifugal tubes having a capacity of 50 mL; using a hook of platinum wire, the carriers to which the test bacterium adhered were put into the centrifugal tubes, one for each, and allowed to act at 25±2° C. for 20 minutes. Thereafter, the carriers were transferred into centrifugal tubes containing 10 mL of an inactivator SCDLP medium (Eiken Chemical Co., Ltd.), one for each, so as to inactivate the bactericidal component in the test liquid adhering to the carrier. The carriers were then treated with a sonicator at 20±2° C. for 5 minutes to wash off the test bacterium; the test liquids were agitated for an additional minute with a vortex mixer to prepare sample liquids for cell count and the number of surviving cells was counted. A control was prepared by the same procedure as described above, except that the test liquids were replaced by sterile physiological saline.
The sample liquids for cell count (stock liquids) were serially diluted 10-fold with sterile physiological saline; the sample liquids or the series of dilutions, each weighing a volume of 1 mL, were transferred aseptically into Petri dishes and, after mixing with 20 mL of a TSA medium, they were solidified and cultured at 36±1° C. for 48 hours. Thereafter, colonies growing on the medium were counted to determine the number of surviving cells per carrier (lower limit for quantification: 10 CFU/carrier).
To obtain those results, the test was replicated in five runs (n=5) and after eliminating minimum and maximum values, an averaged cell count for n=3 was indicated as a logarithmic value.
An experiment was conducted by the same method as in Example 1, except for the following points: water containing oxygen-filled ultrafine bubbles prepared as described above or purified water was used to dilute povidone iodine such that it was conditioned to 100 mg/L; in addition, the most frequent particle density of the water containing ultrafine bubbles were adjusted to orders of 10^4, 10^5, 10^6, and 10^8 per mL.
An experiment was conducted by the same method as in Example 1, except that water containing atmospheric air- or C3F8-filled ultrafine bubbles prepared as described above or purified water was used to dilute povidone iodine such that it was conditioned to 100 mg/L.

[2] = tested on: Streptococcus mutans (ATCC25175) biofilm; assay: Bactericidal effect on cariogenic bacteria-formed biofilms, surviving cells in the biofilm; assay type: cell-based; settings: Example 3, 37°C, 20 min
Procedure: Either water containing oxygen-filled ultrafine bubbles prepared as described above or purified water was used to dilute povidone iodine to condition the same to 1.0 mg/mL and 10 mg/mL.
Streptococcus mutans (ATCC25175) was grown in a Tryptic soy Broth supplemented with 0.5% yeast extract (the resulting medium is hereinafter referred to as TSBY medium) at 37° C. until the OD660 was between 0.6 and 0.8 (10^8 cells/mL); the product was used as a test bacterial liquid.
A TSBY medium (plus 1% sucrose) placed in a test tube in a volume of 4950 μL was inoculated with 50 μL of the test bacterial liquid and was cultured at 37° C. for 18 hours to form a biofilm.
From the test tube in which the biofilm was formed, the culture broth was removed by means of an aspirator and the biofilm was washed with 5 mL of an added PBS. After removing the PBS, 5 mL of the test liquid was treated for reaction as it was shaken with a shaking machine (37° C.×20 min). After the 20-min reaction, 5 mL of 0.4% (w/v) sodium thiosulfate in solution was added into the test tube so as to inactivate the bactericidal agent. Using a sonicator, the biofilm was detached from the inner surfaces of the test tube and dispersed with a vortex mixer thereby prepare a sample liquid for cell count; the number of surviving cells in the biofilm was then counted.
The sample liquids for cell count were diluted with a buffer solution; after culture in an MS agar medium (37° C.×36-48 hours), the number of colonies formed was counted to determine the number of surviving cells in the biofilms.
To obtain those results, the test was replicated in 5 runs (n=5).

[3] = Example 1, povidone iodine 100 mg/L conditioned with water (purified water), 25°C, 20 min
[4] = Example 1, povidone iodine 100 mg/L conditioned with water containing oxygen-filled ultrafine bubbles (91 nm; 3.1x10^8, total 2.3x10^10 particles/ml), 25°C, 20 min
[5] = Example 4, povidone iodine 100 mg/L conditioned with water (purified water)
[6] = Example 4, povidone iodine 100 mg/L, water containing oxygen-filled ultrafine bubbles, 81 nm, most frequent particle density 7.2 × 10^4, total 4.2 × 10^6 particles/ml
[7] = Example 4, povidone iodine 100 mg/L, water containing oxygen-filled ultrafine bubbles, 81 nm, most frequent particle density 7.2 × 10^5, total 4.2 × 10^7 particles/ml
[8] = Example 4, povidone iodine 100 mg/L, water containing oxygen-filled ultrafine bubbles, 81 nm, most frequent particle density 7.2 × 10^6, total 4.2 × 10^8 particles/ml
[9] = Example 4, povidone iodine 100 mg/L, water containing oxygen-filled ultrafine bubbles, 81 nm, most frequent particle density 7.2 × 10^8, total 4.2 × 10^10 particles/ml
[10] = Example 5, povidone iodine 100 mg/L conditioned with water (purified water)
[11] = Example 5, povidone iodine 100 mg/L, water containing C3F8-filled ultrafine bubbles (76 nm; 2.7x10^8, total 1.3x10^10 particles/ml)
[12] = Example 5, povidone iodine 100 mg/L, water containing atmospheric air-filled ultrafine bubbles (75 nm; 5.7x10^8, total 4.6x10^10 particles/ml)
[13] = povidone iodine concentration 1 (table head mg/L; text 1.0 mg/mL) conditioned with water (purified water)
[14] = povidone iodine concentration 1 (table head mg/L; text 1.0 mg/mL) conditioned with water containing oxygen-filled ultrafine bubbles (100 nm; 2.0x10^7, total 1.6x10^9 particles/ml)
[15] = povidone iodine concentration 10 (table head mg/L; text 10 mg/mL) conditioned with water (purified water)
[16] = povidone iodine concentration 10 (table head mg/L; text 10 mg/mL) conditioned with water containing oxygen-filled ultrafine bubbles (100 nm; 2.0x10^7, total 1.6x10^9 particles/ml)

Substance: povidone iodine
- Cell count CFU/carrier average [1, 3]: 8000 CFU/carrier
- Cell count CFU/carrier n1 [1, 3]: 23000 CFU/carrier
- Cell count CFU/carrier n2 [1, 3]: 19000 CFU/carrier
- Cell count CFU/carrier n3 [1, 3]: 26000 CFU/carrier
- log value (averaged surviving cell count as logarithmic value) [1, 3]: 3.9
- Cell count CFU/carrier average [1, 4]: 23 CFU/carrier
- Cell count CFU/carrier n1 [1, 4]: 10 CFU/carrier
- Cell count CFU/carrier n2 [1, 4]: 10 CFU/carrier
- Cell count CFU/carrier n3 [1, 4]: 50 CFU/carrier
- log value (averaged surviving cell count as logarithmic value) [1, 4]: 1.4
- Cell count CFU/carrier average [1, 5]: 44000 CFU/carrier
- Cell count CFU/carrier n1 [1, 5]: 46000 CFU/carrier
- Cell count CFU/carrier n2 [1, 5]: 47000 CFU/carrier
- Cell count CFU/carrier n3 [1, 5]: 39000 CFU/carrier
- Log value [1, 5]: 4.6
- Cell count CFU/carrier average [1, 6]: 5300 CFU/carrier
- Cell count CFU/carrier n1 [1, 6]: 5900 CFU/carrier
- Cell count CFU/carrier n2 [1, 6]: 2200 CFU/carrier
- Cell count CFU/carrier n3 [1, 6]: 7700 CFU/carrier
- Log value [1, 6]: 3.7
- Observed bactericidal efficacy [1, 6]: Δ
- Cell count CFU/carrier average [1, 7]: <10 CFU/carrier
- Cell count CFU/carrier n1 [1, 7]: 4200 CFU/carrier
- Cell count CFU/carrier n2 [1, 7]: <10 CFU/carrier
- Cell count CFU/carrier n3 [1, 7]: <10 CFU/carrier
- Log value [1, 7]: 3.1
- Observed bactericidal efficacy [1, 7]: ○
- Cell count CFU/carrier average [1, 8]: <10 CFU/carrier
- Cell count CFU/carrier n1 [1, 8]: <10 CFU/carrier
- Cell count CFU/carrier n2 [1, 8]: <10 CFU/carrier
- Cell count CFU/carrier n3 [1, 8]: <10 CFU/carrier
- Log value [1, 8]: <1.0
- Observed bactericidal efficacy [1, 8]: ○
- Cell count CFU/carrier average [1, 9]: <10 CFU/carrier
- Cell count CFU/carrier n1 [1, 9]: <10 CFU/carrier
- Cell count CFU/carrier n2 [1, 9]: <10 CFU/carrier
- Cell count CFU/carrier n3 [1, 9]: <10 CFU/carrier
- Log value [1, 9]: <1.0
- Observed bactericidal efficacy [1, 9]: ○
- Cell count CFU/carrier average [1, 10]: 4500 CFU/carrier
- Cell count CFU/carrier n1 [1, 10]: 3200 CFU/carrier
- Cell count CFU/carrier n2 [1, 10]: 1800 CFU/carrier
- Cell count CFU/carrier n3 [1, 10]: 8600 CFU/carrier
- Log value [1, 10]: 3.7
- Cell count CFU/carrier average [1, 11]: <10 CFU/carrier
- Cell count CFU/carrier n1 [1, 11]: <10 CFU/carrier
- Cell count CFU/carrier n2 [1, 11]: <10 CFU/carrier
- Cell count CFU/carrier n3 [1, 11]: <10 CFU/carrier
- Log value [1, 11]: 1.0
- Cell count CFU/carrier average [1, 12]: 32 CFU/carrier
- Cell count CFU/carrier n1 [1, 12]: 10 CFU/carrier
- Cell count CFU/carrier n2 [1, 12]: 75 CFU/carrier
- Cell count CFU/carrier n3 [1, 12]: <10 CFU/carrier
- Log value [1, 12]: 1.5
- Cell count CFU average [2, 13]: 616.6 CFU
- Cell count CFU n1 [2, 13]: 612 CFU
- Cell count CFU n2 [2, 13]: 439 CFU
- Cell count CFU n3 [2, 13]: 1050 CFU
- Cell count CFU n4 [2, 13]: 386 CFU
- Cell count CFU n5 [2, 13]: 596 CFU
- Cell count CFU average [2, 14]: 149.2 CFU
- Cell count CFU n1 [2, 14]: 250 CFU
- Cell count CFU n2 [2, 14]: 35 CFU
- Cell count CFU n3 [2, 14]: 178 CFU
- Cell count CFU n4 [2, 14]: 150 CFU
- Cell count CFU n5 [2, 14]: 133 CFU
- Cell count CFU average [2, 15]: 9.2 CFU
- Cell count CFU n1 [2, 15]: 9 CFU
- Cell count CFU n2 [2, 15]: 22 CFU
- Cell count CFU n3 [2, 15]: 13 CFU
- Cell count CFU n4 [2, 15]: 0 CFU
- Cell count CFU n5 [2, 15]: 2 CFU
- Cell count CFU average [2, 16]: 0 CFU
- Cell count CFU n1 [2, 16]: 0 CFU
- Cell count CFU n2 [2, 16]: 0 CFU
- Cell count CFU n3 [2, 16]: 0 CFU
- Cell count CFU n4 [2, 16]: 0 CFU
- Cell count CFU n5 [2, 16]: 0 CFU
